Results on 1 molecule are retold here after patent US11484533B2, “Methods and compositions for treating obesity” (UNIVERSITY OF SOUTH CAROLINA, priority 2019, dated 2022).

Data set [1] has as its system DIO mice. Put plainly: Diet-induced obesity (DIO) mice treated with SR141716A: body weight, caloric intake, DEXA body composition. The class given is in vivo, C57BL/6J male mice. Here is the method:
(§1) C57BL/6J male mice (Jackson Laboratory, Bar Harbor, Me.) were fed HFD consisting of 60% Kcal from fat (D12492, Research Diets Inc, New Brunswick, N.J.) for 12 weeks before starting the intervention treatment with SR141716A. Additionally, age-matched C57BL/6J male mice were fed a low fat diet (LFD) consisting of 10% Kcal from fat (D12450J, Research Diets Inc, New Brunswick, N.J.) to develop lean controls. SR141716A was obtained from NIDA and administered at a dose of 10 mg/kg daily by oral gavage for 4 weeks, beginning after 12 weeks of diet and ending after 16 weeks. A pair-fed control group was used (HFD-PFSR) in which food intake was restricted to the amount of daily food intake of the HFD+SR group. All mice were maintained in an AAALAC-accredited animal facility at the University of South Carolina, School of Medicine (Columbia, S.C.). All procedures were performed according to NIH guidelines under protocols approved by the Institutional Animal Care and Use Committee.
The body composition in mice was analyzed by dual-energy X-ray absorptiometry (DEXA, LUNAR, Madison, Wis.). The mice were anesthetized and placed in the prone position on the specimen tray to allow scanning of the entire body. For food intake measurements, mice were given a defined amount of large intact food pellet weekly, or daily for the HFD-PFSR group. Food weight was measured using a balance with a precision of 0.01 g. Solid food intake was corrected for any visible spillage.
To study the effects of CB1 antagonist on obesity parameters, DIO mice that were fed a 60% HFD for 12 weeks were treated with SR141716A (SR) by daily oral gavage for 4 weeks (FIG. 1A). All other experimental groups were treated with the vehicle (Veh) 0.1% Tween® 80. In addition to the HFD+SR group, other experimental groups included mice fed a 10% low-fat control diet (LFD) (LFD+Veh), ad-libitum HFD-fed mice (HFD+Veh), and HFD-fed mice that were pair-fed to the HFD+SR group (HFD-PFSR) (FIG. 1B). […] At the baseline of the study, the mice were stratified into groups balanced by mean fat mass. […] Fasting parameters including blood glucose, insulin, insulin resistance index (HOMA-IR), total cholesterol and triglycerides were examined pre- and post- the 4-week intervention with SR compound.

Data set [2] has as its system DIO mice. Description: Fasting metabolic parameters in DIO mice, pre- and post-intervention. As to conditions: HFD+SR vs HFD+Veh and HFD-PFSR; pre- and post- 4-week intervention; 5 h fasted. The class given is in vivo, C57BL/6J male mice. The method, then:
as §1, with “All mice were maintained in an AAALAC-accredited animal facility at the University of South Carolina, School of Medicine (Columbia, S.C.). All procedures were performed according to NIH guidelines under protocols approved by the Institutional Animal Care and Use Committee.” left out
Measurements of blood glucose, insulin, total cholesterol, and triglycerides were performed in animals fasted for 5 hours. […] The glucose level in whole blood was measured with a glucometer (Bayer, Leverkusen, Germany). Insulin concentration was determined in isolated plasma using an ELISA kit (Abcam, Cambridge, Mass.). Total cholesterol (Genzyme, Kent, United Kingdom) and triglycerides (Pointe Scientific, Canton, Mich.) were determined by colorimetric enzymatic reaction according to the manufacturer's instructions. To quantify insulin resistance, the homeostatic model assessment of insulin resistance index (HOMA-IR) was calculated as previously described.

The test system of data set [3] is epididymal adipose tissue. Put plainly: qRT-PCR of macrophage polarization genes in epididymal fat of DIO mice. The data set is classed as in vivo, C57BL/6J male mice. Here is the method:
as §1
After 4 weeks of treatment, mice were euthanized for tissue collection. Tissues were removed, weighed, and immediately processed to single cell suspension, snap-frozen in liquid nitrogen and stored at −80° C., or fixed in 10% formalin.
ATM RNA was isolated by miRNeasy Mini Kit (Qiagen). […] Fold change in mRNA expression was calculated using the comparative cycle method (2^−ΔΔCt).
(In qPCR the cycle at which signal appears reflects the starting amount.)

The subject of data set [4] is adipose tissue macrophages (ATMs). Description: qRT-PCR and Western blot in adipose tissue macrophages (ATM) of treated DIO mice. The data set is classed as in vivo, C57BL/6J male mice. Here is the method: Epididymal fat pads of mice were excised and placed in gentleMACS™ C Tubes (Miltenyi Biotec, San Diego, Calif.) containing digestion medium (HBSS, 2 mg/ml collagenase (Sigma-Aldrich, St. Louis, Mo.) and 2% BSA), followed by homogenization utilizing a gentleMACS™ Dissociator (Miltenyi Biotec). After incubation at 37° C. for 30 minutes with gentle shaking, the cell suspension was filtered through a 100-μm filter and then spun at 300 g for 5 minutes to separate floating adipocytes from the stromal vascular fraction (SVF) pellet. Isolation of F4/80+ ATMs from the SVF was performed using EasySep™ FITC Positive Selection Kit (STEMCELL Technologies, Vancouver, B.C.). FITC-anti-F4/80 antibodies (Clone: BM8, BioLegend®, San Diego, Calif.) were used to label the cells for positive selection. Isolated cells were lysed for RNA analysis in QIAzol (Qiagen, Valencia, Calif.) and stored at −80° C. until RNA purification.
ATM RNA was isolated by miRNeasy Mini Kit (Qiagen). For RNA extraction from whole adipose tissue, 1 mg of adipose tissue was homogenized in RNA-Solv® Reagent with OBI's HiBind® technology reagent (Omega Bio-tek, Norcross, Ga.) and total RNA was isolated as previously described (31). RNA quality was verified by NanoDrop™ 2000C (Thermo Scientific™, Waltham, Mass.). Purified RNA (0.5-1 μg) was reverse-transcribed using miScript cDNA Synthesis Kit (Qiagen), and qRT-PCR analysis was conducted using SsoAdvanced™ Universal SYBR® Green Supermix kit (Bio-Rad, Hercules, Calif.). Fold change in mRNA expression was calculated using the comparative cycle method (2^−ΔΔCt).
Western blot analyses were carried out according to standard protocols with antibodies raised against Netrin-1 (R&D Systems, Minneapolis, Minn.) or γ-tubulin (Sigma-Aldrich, St. Louis, Mo.), which was used as a loading control.

The test system of another data set is macrophage CB1. Description: BMDM treated in vitro with 3T3-L1 adipocyte conditioned medium and SR141716A. The data set is classed as cell-based, mouse. The note with it: adipocyte conditioned medium, vs DMSO. The method, then: TNF, IL-6, and IFNγ ELISA kits were purchased from BioLegend. Netrin-1 ELISA kits were purchased from USCN Life Science (Houston, Tex.). Concentrations were measured in cell supernatants using mouse standards according to the manufacturer's guidelines.
Next, to confirm that the M2 polarization and decreased ATM retention observed in HFD+SR treated mice was a direct effect of CB1 blockade and not a secondary effect due to weight loss or other factors, primary macrophages were treated in vitro with 3T3-L1 adipocyte conditioned media and SR141716A or DMSO vehicle control. […] These findings confirmed that blockade of macrophage CB1 signaling has anti-inflammatory effects.

In data set [5] the test system is thioglycollate-elicited peritoneal macrophages. Description: Migration of peritoneal macrophages towards CCL19. The class given is cell-based, mouse. The note with it: SR141716A 10^−6 M vs DMSO; CCL19 500 ng/ml; 3T3-L1 conditioned medium. The method, then: The migration of macrophages to CCL19 (500 ng/ml, R&D Systems) was assessed by FluoroBlock™ permeable inserts (Corning®, Tewksbury, Mass.) and Cytation™5 imaging (BioTek, Winooski, Vt.). Peritoneal macrophages were harvested from mice primed with 1 ml of 3% (wt/vol) thioglycolate (i.p.) to elicit peritoneal exudates with macrophage number peaking on day 4. Macrophages were collected in euthanized mice by intraperitoneal wash. For tracking migration towards chemoattractants, macrophages were labeled with DilC12(3) fluorescent dye (Corning®, Tewksbury, Mass.). Macrophages were treated with conditioned media from 3T3-L1 adipocytes as described and treated either with SR141716A (10^−6 M) or DMSO as the vehicle control.
To test this, thioglycollate-elicited peritoneal macrophages were isolated and cultured them in 3T3-L1 adipocyte conditioned medium and treated them with SR141716A or vehicle. Their migration rate towards CCL19 was measured because CCL19 is the primary chemokine implicated in emigration of tissue macrophages towards draining lymph nodes.

The subject of a further data set is obese patients. The note with it: cited from earlier work.
Data set [6] concerns DIO mice. The note with it: cited from earlier work.
The mark [7] stands for this setting: DIO mice, 10 mg/kg daily oral gavage, 4 weeks.
[8] abbreviates: after 4 weeks of treatment, HFD+SR vs both HFD+Veh and HFD-PFSR, DEXA.
[9] abbreviates: epididymal adipose tissue of DIO mice, previous report.

The structures appear in SMILES notation.

`Cc1c(C(=O)NN2CCCCC2)nn(-c2ccc(Cl)cc2Cl)c1-c1ccc(Cl)cc1` [SR141716A, 5-(4-chlorophenyl)-1-(2,4-dichlorophenyl)-4-methyl-N-piperidin-1-ylpyrazole-3-carboxamide]: in the data set with DIO mice [1] (setting [7]), the body weight result was “acute and persistent weight loss”; the calorie intake result is listed as “transient reduction of calorie intake”. The “changes in lean mass” value in the data set on DIO mice [1] (after 4 weeks of treatment, HFD+SR vs HFD+Veh and HFD-PFSR, DEXA) was “not significant”. In the data set on DIO mice [1] (setting [8]), the fat mass entry is “reduction in the fat mass and fat percentage was significant”; the fat percentage result was “reduction in the fat mass and fat percentage was significant”. In addition, in the data set with DIO mice [2], the “metabolic parameters (fasting blood glucose, insulin, HOMA-IR, total cholesterol, triglycerides)” value is “improvement in metabolic parameters”. In addition, in data set [3], the “Arg1 (M2) expression” value is recorded as “increased expression of Arg1” and the “Nos2 (M1) expression” value was “lowered Nos2 expression”. In data set [4] (ATM, HFD+SR vs HFD+Veh, Western blot and qRT-PCR), the “Netrin-1 expression at protein and transcription level” value is given as “significantly reduced”. Further, the miR-466 family expression entry in data set [4] (ATMs, microarray validated by qRT-PCR, regardless of calorie intake) is “down-regulated”. Moreover, in data set [4] (ATMs, qRT-PCR), the Agap2 expression result was “increased” and the miR-762 expression entry was “reduced”. The Unc5b expression result in data set [4] (HFD+SR vs HFD+Veh) was “downregulated”. Also, in the data set with macrophage CB1 (BMDM), the Klf4 expression result is “induction of Klf4 and Stat6”; the Stat6 expression result is “induction of Klf4 and Stat6”. Moreover, the Netrin-1 secretion entry in the data set with macrophage CB1 (macrophages, ELISA) is “reduced”. For the same molecule, in data set [5], the “migration towards CCL19” value is “higher migration towards CCL19”. Moreover, the weight loss entry in the data set on obese patients (obese patients, compared with placebo) is listed as “greater weight loss”. The adverse effects entry in the data set with obese patients (reason for removal from the market) was “adverse psychiatric effects”. In the data set with DIO mice [6] (HFD+SR vs HFD+Veh, previously demonstrated), the “number of pro-inflammatory M1 macrophages in adipose tissue” value is “significant decrease”. In the data set on DIO mice [6] (setting [9]), the ATM infiltration entry was “reduces both ATM infiltration and M1 polarization”; the M1 polarization entry is “reduces both ATM infiltration and M1 polarization”.
